Our source for the EC50 and CC50 values is US5696151A, “Compounds useful for the inhibition of the replication of HIV-1 and HIV-1 mutants” (priority 1995, dated 1997).

Holding throughout (type): cell-based
In one data set the test system is HIV-1/181-Cys. Briefly: Inhibition of HIV-1 induced syncytium formation in CEM cells, RT mutant 181-Cys. The note with it: Human immunodeficiency virus 1, CCRF-CEM, 96 h, Table 2B, day 4, averages of 2 to 3 independent experiments, read-out: Antiviral Activity of Comparative Compounds EC50, 181-Cys. The source says: (§1) CEM cells were obtained from the American Tissue Cell Culture Collection (Rockville, Md.). HIV-1(IIIB) was originally obtained from the culture supernatant of persistently HIV-1-infected H9 cells and was provided by R. C. Gallo and M. Popovic (National Cancer Institute, National Institutes of Health, Bethesda, Md.). […] 67: 5353-5359 (1993); HIV-1/Lys-138 ("Lys-138") was selected for resistance against TSAO-m^3T as described in Balzarini et al, Virology 192: 246-253 (1993) and Balzarini et al, Proc. Nat. Acad. Sci. USA 90: 6952-6956 (1993); HIV-1/181-Cys ("181-Cys") was selected for resistance against pyridinone L-697,661 as described in Balzarini et al, Virology 192: 246-253 (1993); and HIV-1/188-His ("188-His") was selected for resistance against HEPT as described in Balzarini et al, Mol. Pharmocol. 44: 694-701 (1993). 188-His was then further converted to HIV-1/188-Leu "188-Leu") upon further passage in cell culture in the absence of the HEPT.
(§2) CEM cells were suspended at ≈300,000 cells per ml of culture medium and infected with approximately 100 CCID50 (CCID50 being the 50% cell culture infective dose) of HIV-1(IIIB) or one of the HIV-1 RT mutant strains described above. Then 100 μl of the infected cell suspensions was added to 200 μl microtiter plate wells containing 100 μl of appropriate serial (5-fold) dilutions of the test compounds. The inhibitory effect of the test compounds on HIV-1 induced syncytium formation in CEM cells was examined microscopically on day 4 post infection.

The test system of the next data set is HIV-1/100-Ile. Briefly: Inhibition of HIV-1 induced syncytium formation in CEM cells, RT mutant 100-Ile. The note with it: Human immunodeficiency virus 1, CCRF-CEM, 96 h, Table 2B, day 4, averages of 2 to 3 independent experiments, read-out: Antiviral Activity of Comparative Compounds EC50, 100-Ile.
From the text: as §1, §2

A further data set is described as follows: in vitro. The note with it: human, cem cells, CC50 (50% cytostatic concentration), Table 2B; CEM cell proliferation; averages of 2 to 3 independent experiments.
From the text: as §1
^b 50% cytostatic concentration (i.e., compound concentration require
to inhibit CEM cell proliferation by 50%)

Another data set relates to HIV-1/Lys-138. Briefly: Inhibition of HIV-1 induced syncytium formation in CEM cells, RT mutant 138-Lys. Particulars: Human immunodeficiency virus 1, CCRF-CEM, 96 h, Table 2B, day 4, averages of 2 to 3 independent experiments, read-out: Antiviral Activity of Comparative Compounds EC50, 138-Lys.
From the text: as §1, §2

For another data set, the system named is HIV-1(IIIB). Description: Inhibition of HIV-1 induced syncytium formation in CEM cells, wild type. Particulars: Human immunodeficiency virus 1, IIIB, CCRF-CEM, 96 h, Table 2B, WT = HIV-1(IIIB), day 4, averages of 2 to 3 independent experiments, read-out: Antiviral Activity of Comparative Compounds EC50, WT.
From the text: as §1, §2

A further data set has as its system HIV-1/106-Ala. Description: Inhibition of HIV-1 induced syncytium formation in CEM cells, RT mutant 106-Ala. Particulars: Human immunodeficiency virus 1, CCRF-CEM, 96 h, Table 2B, day 4, averages of 2 to 3 independent experiments, read-out: Antiviral Activity of Comparative Compounds EC50, 106-Ala.
From the text: as §1, §2

As usually defined, the EC50 is the concentration at which the effect is half-maximal. By CC50 is commonly meant the concentration at which the toxic effect on the cells reaches its halfway point. High values mean lower toxicity to the cells, low ones greater toxicity to the cells.

SMILES strings stand for the structures. ≈ marks a conversion by molar mass, not a printed value.

On to `Cc1occc1C(=S)Nc1ccc(Cl)c(C(=O)OC2CCCCC2)c1` [Compound 83], for which the EC50 turned out to be 0.07 mg/L (≈ 0.185 µM) in the data set with HIV-1/181-Cys; 0.17 mg/L (≈ 0.45 µM) in the data set with HIV-1/100-Ile; 0.035 mg/L (≈ 0.0926 µM) in the data set on HIV-1/Lys-138; 0.004 mg/L (≈ 0.0106 µM) with HIV-1(IIIB); 0.057 mg/L (≈ 0.151 µM) with HIV-1/106-Ala. In the data set “in vitro”, this compound had a half-maximal cytotoxic concentration (CC50) of 9.7 mg/L (≈ 25.7 µM).
Take `Cc1occc1C(=S)Nc1ccc(Cl)c(C=NOC2CCCC2)c1` [Compound 113]: the concentration giving a half-maximal response (EC50) in the data set with HIV-1/181-Cys stood at 0.13 mg/L (≈ 0.358 µM); in the data set with HIV-1/100-Ile it was 0.27 mg/L (≈ 0.744 µM); with HIV-1/Lys-138, 0.15 mg/L (≈ 0.413 µM); in the data set on HIV-1(IIIB) it was 0.023 mg/L (≈ 0.0634 µM); with HIV-1/106-Ala it was 0.085 mg/L (≈ 0.234 µM). Also, the CC50 in the data set “in vitro” turned out to be 5.4 mg/L (≈ 14.9 µM).
As for `Cc1occc1C(=S)Nc1ccc(Cl)c(C(=O)OC(C)C)c1` [Compound 49], the EC50 with HIV-1/181-Cys was determined as 0.2 mg/L (≈ 0.592 µM); with HIV-1/100-Ile, 0.6 mg/L (≈ 1.78 µM); in the data set with HIV-1/Lys-138, 0.6 mg/L (≈ 1.78 µM); in the data set with HIV-1(IIIB), 0.007 mg/L (≈ 0.0207 µM); in the data set with HIV-1/106-Ala it was 0.6 mg/L (≈ 1.78 µM). The cytotoxic concentration (CC50) in the data set “in vitro” amounted to 5.2 mg/L (≈ 15.4 µM).
With `Cc1sccc1C(=S)Nc1ccc(Cl)c(C=NOC(C)(C)C)c1` [Compound 61], the EC50 in the data set with HIV-1/181-Cys stood at 0.2 mg/L (≈ 0.545 µM); in the data set with HIV-1/100-Ile, 0.2 mg/L (≈ 0.545 µM); with HIV-1/Lys-138, 0.05 mg/L (≈ 0.136 µM); with HIV-1(IIIB) it was 0.01 mg/L (≈ 0.0273 µM); in the data set with HIV-1/106-Ala, 0.2 mg/L (≈ 0.545 µM). This compound showed a 50% cytotoxic concentration (CC50) in “in vitro” of 12 mg/L (≈ 32.7 µM).
As to `CC(C)OC(=O)c1cc(NC(=S)c2cccs2)ccc1Cl` [Compound 89], the EC50 stood at 4 mg/L (≈ 11.8 µM) in the data set on HIV-1/181-Cys; 3 mg/L (≈ 8.83 µM) with HIV-1/100-Ile; 1.9 mg/L (≈ 5.59 µM) with HIV-1/Lys-138; 0.09 mg/L (≈ 0.265 µM) in the data set on HIV-1(IIIB); 4 mg/L (≈ 11.8 µM) in the data set on HIV-1/106-Ala. The same compound showed a CC50 in the data set “in vitro” of 4.9 mg/L (≈ 14.4 µM).
For the compound `C=CCOc1cc(NC(=S)c2sccc2C)ccc1Cl` [Compound 76], the concentration giving a half-maximal response (EC50) in the data set on HIV-1/181-Cys was above 1 mg/L; in the data set with HIV-1/100-Ile, 2.7 mg/L (≈ 8.34 µM); in the data set with HIV-1/Lys-138, 0.73 mg/L (≈ 2.25 µM); with HIV-1(IIIB) it was 0.035 mg/L (≈ 0.108 µM); in the data set with HIV-1/106-Ala, at least 1 mg/L. The same compound gave a 50% cytotoxic concentration (CC50) in the data set “in vitro” of 5.3 mg/L (≈ 16.4 µM).
As for `CCC(CC)COC(=O)c1cc(NC(=S)c2ccoc2C)ccc1Cl` [Compound 108], the EC50 was 0.08 mg/L (≈ 0.211 µM) with HIV-1/181-Cys; 0.27 mg/L (≈ 0.711 µM) in the data set on HIV-1/100-Ile; 0.07 mg/L (≈ 0.184 µM) with HIV-1/Lys-138; 0.007 mg/L (≈ 0.0184 µM) in the data set on HIV-1(IIIB); 0.08 mg/L (≈ 0.211 µM) in the data set with HIV-1/106-Ala. For the same compound, the CC50 in the data set “in vitro” is 7 mg/L (≈ 18.4 µM).
Take `CC(C)C(OC(=O)c1cc(NC(=S)c2ccccc2F)ccc1Cl)C(C)C` [Compound 98]: the EC50 was above 1 mg/L in the data set on HIV-1/181-Cys; above 1 mg/L with HIV-1/100-Ile; 0.7 mg/L (≈ 1.72 µM) in the data set on HIV-1/Lys-138; 0.06 mg/L (≈ 0.147 µM) with HIV-1(IIIB); 0.85 mg/L (≈ 2.08 µM) in the data set with HIV-1/106-Ala. In “in vitro”, this compound displayed a 50% cytotoxic concentration (CC50) of 7.5 mg/L (≈ 18.4 µM).
Turning to `CC(C)(C)ON=Cc1cc(NC(=S)c2ccccc2)ccc1Cl` [Compound 93], the EC50 in the data set on HIV-1/181-Cys was determined as 0.7 mg/L (≈ 2.02 µM); in the data set with HIV-1/100-Ile, 2 mg/L (≈ 5.77 µM); in the data set on HIV-1/Lys-138 it was 0.08 mg/L (≈ 0.231 µM); with HIV-1(IIIB), 0.03 mg/L (≈ 0.0865 µM); with HIV-1/106-Ala, 0.1 mg/L (≈ 0.288 µM). The CC50 in “in vitro” is 9.7 mg/L (≈ 28 µM).
For the compound `C=CCOc1cc(NC(=S)c2sccc2C)ccc1C#N` [Compound 77], the EC50 in the data set with HIV-1/181-Cys was above 1 mg/L; in the data set on HIV-1/100-Ile, at least 1 mg/L; with HIV-1/Lys-138, 0.55 mg/L (≈ 1.75 µM); in the data set with HIV-1(IIIB), 0.045 mg/L (≈ 0.143 µM); in the data set with HIV-1/106-Ala, at least 1 mg/L. In the data set “in vitro”, this compound gave a half-maximal cytotoxic concentration (CC50) of 3.6 mg/L (≈ 11.4 µM).
For the compound `Cc1ccccc1C(=S)Nc1ccc(Cl)c(C(=O)OC(C)C)c1` [Compound 91], the EC50 was 7.5 mg/L (≈ 21.6 µM) in the data set on HIV-1/181-Cys; 4.5 mg/L (≈ 12.9 µM) with HIV-1/100-Ile; 5 mg/L (≈ 14.4 µM) in the data set on HIV-1/Lys-138; 0.45 mg/L (≈ 1.29 µM) with HIV-1(IIIB); 8.5 mg/L (≈ 24.4 µM) in the data set with HIV-1/106-Ala. The compound further registered a CC50 in “in vitro” of 5.8 mg/L (≈ 16.7 µM).
`Cc1occc1C(=S)Nc1ccc(Cl)c(C(=O)OC(C)C2CC2)c1` (stereo not drawn) [Compound 55]: the EC50 stood at 0.11 mg/L (≈ 0.302 µM) with HIV-1/181-Cys; 0.65 mg/L (≈ 1.79 µM) in the data set with HIV-1/100-Ile; 0.18 mg/L (≈ 0.495 µM) with HIV-1/Lys-138; 0.009 mg/L (≈ 0.0247 µM) with HIV-1(IIIB); 0.08 mg/L (≈ 0.22 µM) in the data set on HIV-1/106-Ala. In the data set “in vitro”, this compound returned a CC50 of 17 mg/L (≈ 46.7 µM).
